Counter-ions that a name gives are not always drawn.
Tests used:
Assay type in all cases: physicochemical
[1] = water absorption / hygroscopicity
[2] = storage in humidity chamber, polymorph conversion
From the text: Crystalline form B in an open glas container is stored in a humidity chamber at relative humidity of 35% and room temperature. Samples were taken prior to storage and after 4, 14, 19 and 21 days of storage under these conditions.
Crystalline form B in an open glas container is stored in a humidity chamber at relative humidity of 60% and room temperature. Samples were taken prior to storage and after 7, 17 and 22 days of storage under these conditions.
Crystalline form B in an open glas container is stored in a humidity chamber at relative humidity of 75% and room temperature. Samples were taken prior to storage and after 6, 13 and 23 days of storage under these conditions.

[3] = variable temperature X-ray powder diffraction experiment; conditions: 90° C., after half an hour
Method: Variable temperature Powder Diffraction Data Collection was carried out on a Shimadzu XRD-6000X-ray powder diffractometer using Cu Kα radiation. The instrument is equipped with a fine focus X-ray tube. The tube voltage and amperage were set to 40 kV and 40 mA, respectively. The divergence and scattering slits were set at 1° and the receiving slit was set at 0.15 mm. Diffracted radiation was detected by a NaI scintillation detector. A theta-two theta continuous scan at 3°/min (0.4 sec/0.02° step) from 2,5 to 40° 2 θ was used. A silicon standard was analyzed each day to check the instrument alignment. The instrument was equipped with an Anton Paar HTK 1200 high temperature stage and a ceramic sample holder

solubility in water = assay: solubility in water
[4] = stability in organic media; conditions: chloroform, dioxane, ethyl acetate, hexane, tetrahydrofuran, toluene; room temperature or higher (e.g. up to 40° C.)

Q: With COc1cccc([C@@]2(O)C[C@H](O)CC[C@@H]2CN(C)C)c1 (racemic) [form C, (1RS,3RS,6RS)-6-Dimethylaminomethyl-1-(3-methoxy-phenyl)cyclohexane-1,3-diol hydrochloride] as the compound, how does the hygroscopicity ([1]; compared with all known polymorphic forms) read?
A: lowest hygroscopicity of all known polymorphic forms

Q: Which “crystalline form found after storage” value [2] does the source give for COc1cccc([C@@]2(O)C[C@H](O)CC[C@@H]2CN(C)C)c1 (racemic) [form B, (1RS,3RS,6RS)-6-Dimethylaminomethyl-1-(3-methoxy-phenyl)cyclohexane-1,3-diol hydrochloride] here?
A: crystalline form B only

Q: What about the “conversion to another polymorph under high humidity” value ([2]; high humidity) of the same compound?
A: not converted to another polymorph

Q: What about the “solid form conversion on heating” value [3] of the same compound?
A: converted to form E

Q: Which “resistance to water absorption” value ([1]; up to 60% relative humidity, room temperature, at least up to three weeks) does the source give for COc1cccc([C@@]2(O)C[C@H](O)CC[C@@H]2CN(C)C)c1 (racemic) [form A, (1RS,3RS,6RS)-6-Dimethylaminomethyl-1-(3-methoxy-phenyl)cyclohexane-1,3-diol hydrochloride] here?
A: resistant to water absorption

Q: What about the solubility in water (solubility in water) of the same compound?
A: very high solubility in water

Q: And the “stability in organic media” value [4]?
A: stable in organic media

From US8309610B2, “Crystalline forms of (1RS,3RS,6RS)-6-dimethylaminomethyl-1-(3-methoxyphenyl)cyclohexane-1,3-diol hydrochloride” (priority 2005, dated 2012)
